Consider two compounds from US20050153938A1, “Polyphosphonate derivatives for toothpaste compositions” (Universite D'Angers, priority 2002, published 2005).

Assay [1] in a line: Tests of efficiency of polyphosphonate compounds for preventing bonding of proteins. The note with it: compared with diphosphonic esters, sulfonates, phosphates, carboxylates and diphosphates. The procedure: One particular difficulty lies in identification of compounds with a particularly efficient behaviour for the required application.
This TMADP compound has been synthesised in a single step using hydroxyethylidene biphosphonic acid (HEDP) and glycidyltrimethylammonium chloride. The reaction was done in DMSO previously conserved on a molecular sieve. After dissolution of HEDP (2 g; 14.5×10^−3 mol) at 50° C. in 30 ml of DMSO, the epoxyde (2.2 g; 14.5×10^−3 mol) is added and the temperature is increased to 110° C. for 24 hours. The DMSO is then evaporated at low pressure and the raw product is dissolved in a minimum amount of distilled water. The TMADP product is then chromatographed on a cation exchanger resin (DOWEX 50WX8-20/50 Mesh, H+form). The column is eluted with distilled water and the pure product is collected at a pH of between 3.0 and 3.5.

A short description of assay [2]: Model of protection of a stainless steel plate against bonding of proteins. An excerpt:
A sufficient coverage quantity of TMADP molecules on this model is […] per nm^2 of plaque surface area.

As to `C[N+](C)(C)CCCCCC(P(=O)(O)O)P(=O)(O)O` [6-trimethylammoniohexyl-1,1-bisphosphonic acid], the “efficiency of the compound (result in words)” value in assay [1] is reported as “particularly conclusive results”.
For the compound `CC(OCC(O)C[N+](C)(C)C)(P(=O)(O)O)P(=O)(O)O.[Cl-]` (stereo not shown) [TMADP, 2,2-diphosphono-5-hydroxy-3-oxa-6-hexyltrimethylammonium (TMADP) chloride], in assay [1], the “efficiency of the compound (result in words)” value is “particularly conclusive results”. Besides, the contamination by proteins entry in assay [2] (TMADP concentration 2.86×10^−4 mol.I-1, 10 minutes incubation of the plaque (stainless steel plate)) was “less than 10%”; in assay [2] (TMADP concentration about 1.4×10^−4 mol.I-1, stainless steel plate), “about 15%”.
